# Experiments:
# Assay type in all cases: cell-based
# [1] = system: mouse growth hormone; test: Real Time RT-PCR of growth hormone expression in C2C12 cells; details: for effect on growth hormone expression (in words): C2C12; for Growth Hormone Expression relative to Control: C2C12, 1 μM, Real Time RT-PCR, normalized to GAPDH
# Protocol: (§1) A mouse skeletal muscle cell line, C2C12, (ATCC) was seeded between 4 and 20 passages at a density of 10^5 cells/cm^2 onto 10 cm tissue culture plates. The cells were grown in DMEM supplemented with 10% Fetal Bovine Serum, 10 mM HEPES, 6 mM Glutamine, 1 mM pyruvate, 100 U/ml penicillin, and 100 ug/ml streptomycin.
# (§2) Cells were grown for 48 hours in 5% CO2 at 37° C. until they approached 80% confluency. Cells were washed with serum free DMEM and treated with either 1 μM […] (20HE), or methandrostenolone (synthetic anabolic steroid). Both compounds were dissolved in 70% ethanol and added to serum free media. Cells were incubated after treatment for 18 hours before RNA extraction.
# (§3) Selected microarray results were verified by comparison with mRNA levels obtained by Real Time reverse transcription PCR (qRT-PCR). Selected gene-specific primer pairs were designed for the mouse growth hormone and glyceraldehyde-3-phosphate dehydrogenase genes using the Primer Express software, as shown in Table 3. Total RNA was isolated, DNase I-treated, and first-strand cDNA was synthesized using Stratascript reverse transcriptase with random primers. The PCR reactions were carried out using 500 ng of cDNA, 150 nM of each primer, and SYBR Green master mix in 25 μL reactions. Levels of quantitative reverse transcription product were measured using SYBR Green fluorescence collected during real-time PCR on a Stratagene MXP3000 sequence detection system. A control cDNA dilution series was created for each gene to establish a standard curve. Reverse transcriptase was excluded from control samples to identify potential genomic contamination. Each reaction was subjected to melting point analysis to confirm single amplified products. The data generated from each PCR were analyzed using MXP 3000 software.
# (§4) Quantitative real time PCR was used to verify the microarray results for growth hormone. RNA samples from each treatment were reverse-transcribed into cDNA and amplified using real time PCR. Values for growth hormone were normalized to values obtained for the housekeeping gene, glyceraldehyde-3-phosphate dehydrogenase, and the ratios of the two treatments were calculated. In both the C2C12 and TM3 cell lines differential expression was qualitatively confirmed.
# (§5) Using the ΔΔCt method, relative expression was calculated.
# [2] = system: mouse growth hormone; test: Real Time RT-PCR of growth hormone expression in TM3 cells; details: for effect on growth hormone expression (in words): TM3; for Growth Hormone Expression relative to Control: TM3, 1 μM; for change in growth hormone expression over time (in words): TM3, treated 20 minutes to 24 hours
# Protocol: (§6) A mouse Leydig cell line, TM3, (ATCC) was seeded between 5 and 20 passages at a density of 10^5 cells/cm^2 onto 10 cm tissue culture plates. The cells were grown in F12/DME media supplemented with 5% horse serum, 2.5% fetal bovine serum, 100 U/ml penicillin, and 100 μg/ml streptomycin.
# as §2, §3, §4, §5
# To further investigate the effects of 20-HE, the TM3 leydig cell line was treated for varying intervals, from 20 minutes to 24 hours, with either 20-HE or methandrostenolone. Growth hormone expression was than analyzed using real time PCR as mentioned earlier.
# [3] = system: TM3 mouse Leydig cell line; test: cDNA microarray comparison of transcription, 20HE vs methandrostenolone, TM3 cells; details: 18 hours
# Protocol: (§7) A transcriptome approach utilizing cDNA microarray was implemented to observe the unique effects of ecdysteroids. Microarray analyses was developed and implemented to discern the transcriptional differences between ecdysteroids and anabolic steroids.
# as §6, §2
# (§8) RNA was extracted and purified from C2C12 myoblasts and TM3 Leydig tumor line cells using an RNeasy kit according to the manufacturer's instructions (Qiagen). RNA concentration and purity were assessed using a spectrophotometer. All RNA samples used had 260/280 ratios greater than 1.9.
# (§9) A collection of 21,900 oligonucleotides was purchased from Compugen, Inc. Microarrays were printed on poly-L-lysine-coated glass slides using an OmniGrid microarrayer (GeneMachines, San Carlos, Calif.) and quill-type printing pins (Telichem, Sunnyvale, Calif.) following standard procedures. Fluorescent probes were prepared from 5 μg of total cellular RNA using the Genisphere 3DNA dendrimer system (Genisphere, Inc., Montvale, N.J.). Two separate microarrays, one for each cell line, were run. The ecdysone treated RNA sample was labeled with Cy3 and the methandrostenelone treated RNA sample was labeled with Cy5 in a parallel reaction, mixed, and hybridized to the chips. Automated microarray hybridization and washing were performed using a Ventana Discovery System. The sequence-tagged target was hybridized for 12 hours at 58° C., and microarrays were washed twice in […] for 10 minutes at 55° C. and once in […] for 2 minutes at 42° C. Florescent dendrimer was then applied and incubated at 55° C. for 2 hours. The microarrays were then washed with […] and spin-dried, followed by scanning on an Axon GenePix 4000B. Image files were processed using Axon GenePix 4.0 software, resulting in text files containing median fluorescence intensities as well as median local backgrounds. Normalized data were imported along with spot flag information into GeneSpring where the ratios were calculated.
# [4] = system: C2C12 mouse skeletal muscle cell line; test: cDNA microarray comparison of transcription, 20HE vs methandrostenolone, C2C12 cells; details: 18 hours
# Protocol: as §7, §1, §2, §8, §9
# [5] = Real Time RT-PCR, normalized to GAPDH
structure (smiles),measurement,setting,value
"C[C@]12C=CC(=O)C=C1CC[C@@H]1[C@@H]2CC[C@@]2(C)[C@H]1CC[C@]2(C)O [Methandrostenolone, methandrostenolone, reference compound]",effect on growth hormone expression (in words),[1],little or no effect
same,Growth Hormone Expression relative to Control,[1],0.8 ± 0.5
same,effect on growth hormone expression (in words),[2],little or no effect
same,Growth Hormone Expression relative to Control,[2]; [5],2.3 ± 1.4
same,Growth Hormone Expression relative to Control,[2]; incubation time 20 m,1.2
same,Growth Hormone Expression relative to Control,[2]; incubation time 45 m,1.9
same,Growth Hormone Expression relative to Control,[2]; incubation time 1 hr,2.5
same,Growth Hormone Expression relative to Control,[2]; incubation time 2 hr,1.7
same,Growth Hormone Expression relative to Control,[2]; incubation time 4 hr,2.1
same,Growth Hormone Expression relative to Control,[2]; incubation time 24 hr,2.3
same,change in growth hormone expression over time (in words),[2],very little change
"CC(C)(O)CC[C@@H](O)[C@](C)(O)[C@H]1CC[C@@]2(O)C3=CC(=O)[C@@H]4C[C@@H](O)[C@@H](O)C[C@]4(C)[C@H]3CC[C@]12C [20-Hydroxyecdysone, 20-hydroxyecdysone]",20E/D Expr: Growth hormone,"[3]; TM3, 1 μM, expression ratio 20HE to methandrostenolone, LL 14599",7.006
same,20E/D Expr: Insulin II,"[3]; TM3, 1 μM, expression ratio 20HE to methandrostenolone, LL 16334",0.262
same,"20E/D Expr: Nuclear receptor subfamily 4, group A, member 2","[3]; TM3, 1 μM, expression ratio 20HE to methandrostenolone, LL 18227",0.010
same,20E/D Expr: Chemokine (C-C motif) ligand 20,"[3]; TM3, 1 μM, expression ratio 20HE to methandrostenolone, LL 20297",11.89
same,20E/D Expr: Signal transducer and activator of transcription 1,"[3]; TM3, 1 μM, expression ratio 20HE to methandrostenolone, LL 20846",0.052
same,20E/D Expr: Steroid sulfatase,"[3]; TM3, 1 μM, expression ratio 20HE to methandrostenolone, LL 20905",4.611
same,20E/D Expr: Insulin receptor-related receptor,"[3]; TM3, 1 μM, expression ratio 20HE to methandrostenolone, LL 23920",0.022
same,20E/D Expr: Osteomodulin,"[3]; TM3, 1 μM, expression ratio 20HE to methandrostenolone, LL 27047",0.010
same,20E/D Expr: Ndufs3,"[3]; TM3, 1 μM, expression ratio 20HE to methandrostenolone, LL 68349",4.741
same,genes down-regulated more than 2 fold as compared to methandrostenolone,"[3]; TM3, microarray, 1 μM",341 genes
same,genes up-regulated more than 2 fold as compared to methandrostenolone,"[3]; TM3, microarray, 1 μM",287 genes
same,increase of growth hormone expression more than methandrostenolone,"[3]; TM3, microarray, 1 μM",7.0 times
same,effect on growth hormone expression (in words),[1],increased expression of GH
same,Growth Hormone Expression relative to Control,[1],3.9 ± 0.9
same,effect on growth hormone expression (in words),[2],increased expression of GH
same,Growth Hormone Expression relative to Control,[2]; [5],7.1 ± 1.2
same,Growth Hormone Expression relative to Control,[2]; incubation time 20 m,0.9
same,Growth Hormone Expression relative to Control,[2]; incubation time 45 m,3.5
same,Growth Hormone Expression relative to Control,[2]; incubation time 1 hr,7.3
same,Growth Hormone Expression relative to Control,[2]; incubation time 2 hr,6.9
same,Growth Hormone Expression relative to Control,[2]; incubation time 4 hr,7.2
same,Growth Hormone Expression relative to Control,[2]; incubation time 24 hr,7
same,change in growth hormone expression over time (in words),[2],"increased growth hormone expression over time, beginning after 45 minute and remaining increased after 24 hours"
same,20E/D Expr: Annexin A5,"[4]; C2C12, 1 μM, expression ratio 20HE to methandrostenolone, LL 11747",11.90
same,20E/D Expr: Cholecystokinin,"[4]; C2C12, 1 μM, expression ratio 20HE to methandrostenolone, LL 12424",0.010
same,20E/D Expr: Fas death domain-associated protein,"[4]; C2C12, 1 μM, expression ratio 20HE to methandrostenolone, LL 13163",0.010
same,20E/D Expr: Fibroblast growth factor 11,"[4]; C2C12, 1 μM, expression ratio 20HE to methandrostenolone, LL 14166",0.010
same,20E/D Expr: Growth hormone,"[4]; C2C12, 1 μM, expression ratio 20HE to methandrostenolone, LL 14599",3.163
same,"20E/D Expr: Histocompatibility 2, D region locus 1","[4]; C2C12, 1 μM, expression ratio 20HE to methandrostenolone, LL 14964",6.771
same,20E/D Expr: Hexokinase 2,"[4]; C2C12, 1 μM, expression ratio 20HE to methandrostenolone, LL 15277",0.010
same,"20E/D Expr: mago-nashi homolog, proliferation-associated","[4]; C2C12, 1 μM, expression ratio 20HE to methandrostenolone, LL 17149",3.708
same,20E/D Expr: Insulin receptor-related receptor,"[4]; C2C12, 1 μM, expression ratio 20HE to methandrostenolone, LL 23920",0.020
same,genes down-regulated more than two fold as compared to methandrostenolone,"[4]; C2C12, microarray, 1 μM",479 genes
same,genes up-regulated more than 2-fold as compared to methandrostenolone,"[4]; C2C12, microarray, 1 μM",278 genes
same,increase of growth hormone expression more than methandrostenolone,"[4]; C2C12, microarray, 1 μM",3.2 times

# Reference: patent US8377915B2, “Methods for treating or preventing disorders using ecdysteroid compositions” (Rutgers, The State University of New Jersey, priority 2006, dated 2013)
